Patent publication US12617752B2, “Rapidly metabolized lipid compound” (Beijing Jitai Life Sciences Ltd, priority 2023, dated 2026)

Assays:
C57BL/6 mice = experiment: In vivo delivery of luciferase mRNA lipid nanoparticles in mice (bioluminescence imaging); details: intravenous, single dose 0.5 mg/kg luciferase mRNA
Experimental: The delivery effect and safety of nanoparticles encapsulated with luciferase mRNA (Trilink, L-7202) in mice were evaluated. The test mice were SPF-grade C57BL/6 mice, female, 6-8 weeks old, weighing 18-22 g, and were purchased from SPF (Beijing) Biotechnology Co., Ltd. All animals were acclimatized for more than 7 days prior to the experiment, and had free access to food and water during the experiment. The conditions include alternating light and dark for 12/12 h, the indoor temperature of 20-26° C. and the humidity of 40-70%. The mice were randomly grouped. The lipid nanoparticles encapsulated with luciferase mRNA prepared above were injected into mice by intravenous administration at a single dose of 0.5 mg/kg mRNA, and the mice were subjected to in vivo bioluminescence assay using a Small Animal In Vivo Imaging System (IVIS LUMINA III, purchased from PerkinElmer) at 6 h after administration. The assay was performed as follows: D-luciferin solution was prepared in saline at a concentration of 15 mg/mL, and each mouse was given the substrate by intraperitoneal injection. At ten minutes after administration of the substrate, the mice were anesthetized in an anesthesia chamber with isoflurane at a concentration of 2.5%. The anesthetized mice were placed in IVIS for fluorescence imaging, and data acquisition and analysis were performed on the concentrated distribution area of fluorescence.
The in vivo delivery efficiency of lipid nanoparticle carriers was expressed as the mean values of fluorescence intensity and total photon count in different animals within the same subject group, as shown in Table 5-Table 11. Higher values of fluorescence intensity and total photon count indicate higher in vivo delivery efficiency of this mRNA fragment by lipid nanoparticles. The lipid nanoparticles containing the cationic lipids of the present disclosure have good in vivo delivery efficiency.

[1] = Particle size and PDI of lipid nanoparticles by dynamic light scattering; format: physicochemical; details: lipid nanoparticles with luciferase mRNA; ionizable lipid/cholesterol/DSPC/DMG-PEG2000 50/38.5/10/1.5 mol%
Experimental: (§1) Lipid nanoparticles were prepared by (1) dissolving and mixing ionizable lipid compounds, cholesterol, phospholipids and polyethylene glycolated lipids in ethanol at (molar percentages) 50%, 38.5%, 10% and 1.5%, respectively; (2) dissolving the mRNA active ingredient in 25 mM sodium acetate solution (pH=4.5); (3) using an automated high-throughput microfluidic system to mix the organic phase containing the lipid mixture and the aqueous phase containing the mRNA component in the flow ratio range of 1:1 to 1:4 at a mixing speed of 10 mL/min to 18 mL/min; (4) the prepared lipid nanoparticles (N/P ratio=6) were diluted with phosphate buffer solution and the nanoparticle solutions were ultrafiltered to the original preparation volume using ultrafiltration tubes (purchased from Millipore) with a cut-off molecular weight of 30 kDa; and (5) the obtained nanoparticles were filtered through a sterile 0.2 μm filter membrane and then stored in a sealed glass vial at low temperature.
(§2) The particle size and particle size dispersity index (PDI) of the prepared lipid nanoparticles were measured using a Zetasizer Pro (purchased from Malvern Instruments Ltd) and a DynaPro NanoStar (purchased from Wyatt) dynamic light scattering instrument. The degree of RNA encapsulation by lipid nanoparticles was characterized by the Encapsulation Efficiency %, which reflects the degree of binding of lipid nanoparticles to RNA fragments. This parameter was measured by the method of Quant-it™ RiboGreen RNA Assay (purchased from Invitrogen). Lipid nanoparticle samples were diluted in TE buffer (10 mM Tris-HCl, 1 mM EDTA, pH=7.5). A portion of the sample solution was removed, to which 0.5% Triton (Triton X-100) was added, and then allowed to stand at 37° C. for 30 minutes. Immediately after the addition of RIBOGREEN® reaction solution, the fluorescence values were read on a Varioskan LUX multifunctional microplate reader (purchased from Thermofisher) at 485 nm for absorption and 528 nm for emission to give the encapsulation efficiency values.

[2] = Encapsulation efficiency of lipid nanoparticles (Quant-it RiboGreen RNA Assay); format: physicochemical; details: lipid nanoparticles with luciferase mRNA
Experimental: as §1, §2

SMILES | Total photon count in vivo at 6 hours after administration (Total Flux) (C57BL/6 mice) | Particle size (nm) [1] | Particle-size distribution (PDI) [1] | Encapsulation efficiency (%) [2]
CCCCCCCCCC(=O)OCC1(CCCCCN(CCO)CCCCCCOC(=O)OCC(CCCCCCCC)CCCCCCCC)CC1 [34b] | 2.78E+10 | 85.20 nm | 0.19 | 97.61%
CCCCCCCCCOC(=O)OCCCCCCN(CCO)CCCCCCC(C)(C)C(=O)OCCCC(CCCCC)CCCCC [35a] | 3.01E+10 | 126.63 nm | 0.22 | 95.00%
CCCCCCCCCC(=O)OCC(C)(C)CCCCCN(CCCCO)CCCCCCOC(=O)OCC(CCCCCCCC)CCCCCCCC [35b] | 3.77E+10 | 100.40 nm | 0.21 | 96.35%
CCCCCCCCCCCOC(=O)OCCCCN(CCO)CCCCCCC(C)(C)C(=O)OC(CCCCCCCC)CCCCCCCC [36a] | 2.51E+10 | 104.80 nm | 0.15 | 92.41%
CCCCCCCCCC(=O)OCC1(CCCCCN(CCCCO)CCCCCCOC(=O)OCC(CCCCCCCC)CCCCCCCC)CC1 [36b] | 3.84E+10 | 112.50 nm | 0.19 | 96.10%
CCCCCCCCCCCOC(=O)OCCCCN(CCO)CCCCCCC(C)(C)C(=O)OCC(CCCCCCC)CCCCCCC [37a] | 3.54E+10 | 110.67 nm | 0.15 | 92.14%
CCCCCCCC(CCCCCCC)CCOC(=O)OCCCCCCN(CCO)CCCCCC(C)(C)COC(=O)CCC(CCCCCC)CCCCCC [37b] | 3.72E+10 | 83.72 nm | 0.16 | 95.15%
CCCCCCCCCCCOC(=O)OCCCCN(CCO)CCCCCCC(C)(C)C(=O)OCCC(CCCCCC)CCCCCC [38a] | 1.39E+10 | 114.03 nm | 0.13 | 94.51%
CCCCCCCCCC(=O)OCC(C)(C)CCCCCN(CCCCCCCC(=O)OC(CCCCCCCC)CCCCCCCC)C(=O)SCCCCN(C)C [38b] | 1.49E+10 | 102.50 nm | 0.11 | 98.29%
CCCCCCCCCOC(=O)OCCCCCCN(CCCCO)CCCCCCC(C)(C)C(=O)OCCCC(CCCCC)CCCCC [39a] | 2.24E+10 | 144.83 nm | 0.08 | 93.59%
CCCCCCCCCOC(=O)C(C)(C)CCCCCCN(CCO)CCCCCCOC(=O)OCC(CCCCCCC)CCCCCCC [40a] | 2.03E+11 | 120.90 nm | 0.18 | 95.08%
CCCCCCCCCCC(=O)OCC(C)(C)CCCCCN(CCCCCCCC(=O)OC(CCCCCCCCC)CCCCCCCCC)C(=O)SCCCCN(C)C [40b] | 3.70E+10 | 97.10 nm | 0.11 | 96.74%
